The source of these data is patent US12338206B2, “Compounds and their uses as thyroid hormone receptor agonists” (Nanjing Ruijie Pharma Co., Ltd., priority 2020, dated 2025).

Molecules are shown by their SMILES.

One experiment addresses TRα LBD (Homo sapiens, UniProt P10827). The experiment can be described thus: In vitro thyroid hormone receptor binding assay (TR-FRET coactivator assay), TRα LBD. Particulars: Biotin-SRC2-2, 1 hour at room temperature. The procedure:
(§1) In Vitro Thyroid Hormone Receptor Binding Assay
(§2) The interaction between the compounds of present invention and Human Thyroid Receptor (TR) are evaluated by Time-Resolved Fluorescence Resonance Energy Transfer (TR-FRET) competition assay. FRET describes a radiation-free energy transfer between two chromophores: a donor fluorophore in its excited state can transfer energy to an acceptor fluorophore in close proximity (typically <10 nm). In contrast to standard FRET, TR-FRET unites time-resolved fluorescence (TRF) and the FRET principle. TRF use a long-lifetime lanthanide chelate as the donor species, while lanthanide chelates are unique in that their excited-state lifetime can be on the order of a millisecond or longer. Suitable neighbors for FRET are known in the art and can be obtained. The assay was adopted from the manual of LanthaScreen™ TR-FRET Thyroid Receptor beta Coactivator Assay kit from Invitrogen.
(§3) The assay is performed in following steps: first, prepare reaction buffer containing 50mMTris-HCl (pH7.4) with 100 mM NaCl, 1mMEDTA, 50mMKF, 1mMDTT, 1mMMgCl2, 10% glycerol, 0.01% NP-40, 0.1% BSA. Second, use the buffer to prepare the appropriate dilution series of the test and reference compounds. The3,3′,5-Triiodothyronine (T3) was used aspositive control agonist. Third, add 5 μl of 4× compoundserial dilution and 5 μl TRa LBD (4×, 4 nM) (or 5 μl TRβ LBD, 4×, 2 nM) into 384-well plate (784075, greiner). Then, add 10 μl of a solution consist of 400 nM Biotin-SRC2-2 (2×) and anti-GST Eu (1:200, 2×) and 50 nM anti-biotin-d2 (2×) in 1× reaction buffer to initiate the reaction. Centrifuge the plates at 1000 g for 1 min and then incubate 1 hour at room temperature protected from light. Finally, read the plate at wavelengths of 665 nm and 615nmonEnvision2104 plate reader.
(§4) A ratio (Ratio665 nm/615 nm−Ratiobackground) is calculated for each well. Percentage of activity, as well as EC50 was calculated. Effect-dose curve was plotted. Relative selectivity was calculated as the ratio of EC50TRα/EC50TRβ.
On the technique in general: In TR-FRET formats the signal depends on donor and acceptor labels being close together.

The next experiment addresses T1, TRβ LBD (Homo sapiens, UniProt P10828).
T1 construct: (or 5 μl TRβ LBD, 4×, 2 nM)
T1 sequence (P10828 217-461 limits assumed): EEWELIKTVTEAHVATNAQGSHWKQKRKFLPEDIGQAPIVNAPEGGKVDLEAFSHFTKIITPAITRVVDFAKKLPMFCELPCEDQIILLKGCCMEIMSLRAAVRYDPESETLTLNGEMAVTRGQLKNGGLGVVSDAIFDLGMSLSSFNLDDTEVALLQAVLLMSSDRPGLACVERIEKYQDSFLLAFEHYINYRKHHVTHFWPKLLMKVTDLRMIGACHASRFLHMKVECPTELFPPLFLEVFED
Put plainly: In vitro thyroid hormone receptor binding assay (TR-FRET coactivator assay), TRβ LBD. Particulars: for EC50: TR-FRET, TRβ LBD, Biotin-SRC2-2, 1 hour at room temperature; for Relative Selectivity TR-α/TR-β: ratio of EC50 TRα/EC50 TRβ, TR-FRET assay. The procedure:
as §1, §2, §3, §4

TRα LBD, sequence (P10827 163-410 isoform P10827-2 limits assumed, other chains not shown): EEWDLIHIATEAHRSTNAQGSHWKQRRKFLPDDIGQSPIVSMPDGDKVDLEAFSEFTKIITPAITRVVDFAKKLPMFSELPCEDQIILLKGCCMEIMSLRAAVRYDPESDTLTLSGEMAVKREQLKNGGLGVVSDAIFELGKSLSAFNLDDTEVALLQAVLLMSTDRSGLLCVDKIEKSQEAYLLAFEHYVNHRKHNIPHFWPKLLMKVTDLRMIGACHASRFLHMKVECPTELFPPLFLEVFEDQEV

Regarding `Cc1cc(OCC(=O)NS(C)(=O)=O)cc(C)c1Cc1ccc(O)c(C(C)C)c1` [Compound I1, 2-(4-(4-hydroxy-3-isopropylbenzyl)-3,5-dimethylphenoxy)-N-(methylsulfonyl)acetamide], the response on TRα LBD was half-maximal at 0.00677 µM (EC50). Besides, at TRβ LBD, the EC50 (in general, the concentration that produces a half-maximal response) stood at 0.0173 µM and the “Relative Selectivity TR-α/TR-β” value is recorded as 0.3915.

For the compound `Cc1cc(OCc2cc(O)no2)cc(C)c1Cc1ccc(O)c(C(C)C)c1` [Compound I2, 5-((4-(4-hydroxy-3-isopropylbenzyl)-3,5-dimethylphenoxy)methyl) isoxazol-3-ol], the EC50 at TRα LBD is 0.00737 µM. In addition, on TRβ LBD, the EC50 is 0.0162 µM and the “Relative Selectivity TR-α/TR-β” value is on record as 0.4560.

Turning to `CC(C)c1cc(Oc2ccc(-n3nc(C#N)c(=O)[nH]c3=O)cc2Cl)cnc1O` [Compound I5, 2-(3-chloro-4-((5-isopropyl-6-oxo-1,6-dihydropyridin-3-yl)oxy)phenyl)-3,5-dioxo-2,3,4,5-tetrahydro-1,2,4-triazine-6-carbonitrile], the EC50 on TRα LBD and on TRβ LBD was above 10 µM in each case.

Turning to `Cc1cc(-n2nc(C#N)c(=O)[nH]c2=O)cc(C)c1Oc1cnc(O)c(C(C)C)c1` [Compound I6, 2-(4-((5-isopropyl-6-oxo-1,6-dihydropyridin-3-yl)oxy)-3,5-dimethylphenyl)-3,5-dioxo-2,3,4,5-tetrahydro-1,2,4-triazine-6-carbonitrile], the EC50 at TRα LBD was above 10 µM; on TRβ LBD it was 1.98 µM. The “Relative Selectivity TR-α/TR-β” value on TRβ LBD was above 5.05.

Turning to `CC(C)c1cc(Oc2c(F)cc(-n3nc(C#N)c(=O)[nH]c3=O)cc2F)c[nH]c1=O` [Compound I7, 2-(3,5-difluoro-4-((5-isopropyl-6-oxo-1,6-dihydropyridin-3-yl)oxy)phenyl)-3,5-dioxo-2,3,4,5-tetrahydro-1,2,4-triazine-6-carbonitrile], the EC50 on TRα LBD and at TRβ LBD was above 10 µM in each case.

Consider `Cc1c[nH]c2ncc(Oc3c(Cl)cc(-n4nc(C#N)c(=O)[nH]c4=O)cc3Cl)cc12` [Compound I8, 2-(3,5-dichloro-4-((3-methyl-1H-pyrrolo[2,3-b]pyridin-5-yl)oxy)phenyl)-3,5-dioxo-2,3,4,5-tetrahydro-1,2,4-triazine-6-carbonitrile], for which, on TRα LBD, the EC50 was above 10 µM. On TRβ LBD, the EC50 is 2.89 µM and the “Relative Selectivity TR-α/TR-β” value was above 3.46.

`N#Cc1nn(-c2cc(Cl)c(Oc3cnc4[nH]ccc4c3)c(Cl)c2)c(=O)[nH]c1=O` [Compound I9, 2-(4-((1H-pyrrolo[2,3-b]pyridin-5-yl)oxy)-3,5-dichlorophenyl)-3,5-dioxo-2,3,4,5-tetrahydr o-1,2,4-triazine-6-carbonitrile]: the EC50 at TRα LBD and at TRβ LBD was above 10 µM in each case.

Consider `N#Cc1nn(-c2cc(Cl)c(Oc3cnc(O)c(C4CC4)c3)c(Cl)c2)c(=O)[nH]c1=O` [Compound I11, 2-(3,5-dichloro-4-((5-cyclopropyl-6-oxo-1,6-dihydropyridin-3-yl)oxy)phenyl)-3,5-dioxo-2,3,4,5-tetrahydro-1,2,4-triazine-6-carbonitrile], for which the EC50 at TRα LBD is above 10 µM; on TRβ LBD it was 0.754 µM.

In turn, `N#Cc1nn(-c2cc(Cl)c(Oc3ccc4[nH]cnc4c3)c(Cl)c2)c(=O)[nH]c1=O` [Compound I13, 2-(4-((1H-benzo[d]imidazol-5-yl)oxy)-3,5-dichlorophenyl)-3,5-dioxo-2,3,4,5-tetrahydro-1,2,4-triazine-6-carbonitrile] yielded an EC50 at TRα LBD of 12.2 µM. Also, at TRβ LBD, the EC50 amounted to 2.61 µM and the “Relative Selectivity TR-α/TR-β” value was 4.67.

At TRα LBD, `Cn1c(=O)[nH]c2ccc(Oc3c(Cl)cc(-n4nc(C#N)c(=O)[nH]c4=O)cc3Cl)cc21` [Compound I14, 2-(3,5-dichloro-4-((3-methyl-2-oxo-2,3-dihydro-1H-benzo[d]imidazol-5-yl)oxy)phenyl)-3,5-dioxo-2,3,4,5-tetrahydro-1,2,4-triazine-6-carbonitrile] displayed an EC50 of 0.172 µM. Further, at TRβ LBD, the midpoint of the response, the EC50, lay at 0.046 µM and the “Relative Selectivity TR-α/TR-β” value stood at 3.70.

Take `N#Cc1nn(-c2cc(Cl)c(Oc3ccc4[nH]c(=O)[nH]c4c3)c(Cl)c2)c(=O)[nH]c1=O` [Compound I15, 2-(3,5-dichloro-4-((2-oxo-2,3-dihydro-1H-benzo[d]imidazol-5-yl)oxy)phenyl)-3,5-dioxo-2,3,4,5-tetrahydro-1,2,4-triazine-6-carbonitrile]: on TRα LBD, a half-maximal response (EC50) required 1.79 µM. On TRβ LBD, the EC50 is 0.854 µM and the “Relative Selectivity TR-α/TR-β” value is 2.09.

On to `N#Cc1nn(-c2cc(Cl)c(Oc3ccc4[nH]ccc4c3)c(Cl)c2)c(=O)[nH]c1=O` [Compound I16, 2-(4-((1H-indol-5-yl)oxy)-3,5-dichlorophenyl)-3,5-dioxo-2,3,4,5-tetrahydro-1,2,4-triazine-6-carbonitrile], for which the EC50 at TRα LBD is 0.532 µM; at TRβ LBD, 0.125 µM. For the same compound, the “Relative Selectivity TR-α/TR-β” value on TRβ LBD was found to be 4.25.

On TRα LBD, `N#Cc1nn(-c2cc(Cl)c(Oc3ccc4cc[nH]c4c3)c(Cl)c2)c(=O)[nH]c1=O` [Compound I17, 2-(4-((1H-indol-6-yl)oxy)-3,5-dichlorophenyl)-3,5-dioxo-2,3,4,5-tetrahydro-1,2,4-triazine-6-arbonitrile] had an EC50 of 1.02 µM. On TRβ LBD, a half-maximal effect (EC50) was put at 0.135 µM and the “Relative Selectivity TR-α/TR-β” value is 7.50.

With `CC1(C)C(=O)Nc2ccc(Oc3c(Cl)cc(-n4nc(C#N)c(=O)[nH]c4=O)cc3Cl)cc21` [Compound I19, 2-(3,5-dichloro-4-((3,3-dimethyl-2-oxoindolin-5-yl)oxy)phenyl)-3,5-dioxo-2,3,4,5-tetrahydr 0-1,2,4-triazine-6-carbonitrile], the EC50 on TRα LBD turned out to be 0.024 µM. For the same compound, on TRβ LBD, the EC50 amounted to 0.006 µM and the “Relative Selectivity TR-α/TR-β” value was found to be 3.83.

`N#Cc1nn(-c2cc(Cl)c(Oc3ccc4[nH]c(=O)oc4c3)c(Cl)c2)c(=O)[nH]c1=O` [Compound I20, 2-(3,5-dichloro-4-((2-oxo-2,3-dihydrobenzo[d]oxazol-6-yl)oxy)phenyl)-3,5-dioxo-2,3,4,5-tetrahydro-1,2,4-triazine-6-carbonitrile]: the EC50 at TRα LBD is 8.37 µM. On TRβ LBD, the EC50 amounted to 2.09 µM and the “Relative Selectivity TR-α/TR-β” value amounted to 4.01.

Compound `Cc1c[nH]c2ccc(Cc3c(Cl)cc(-n4nc(C#N)c(=O)[nH]c4=O)cc3Cl)cc12` [Compound I21, 2-(3,5-dichloro-4-((3-methyl-1H-indol-5-yl)methyl)phenyl)-3,5-dioxo-2,3,4,5-tetrahydro-1,2,4-triazine-6-carbonitrile] yielded an EC50 at TRα LBD of 1.04 µM. Further, on TRβ LBD, it took 0.086 µM to reach a half-maximal effect (EC50) and the “Relative Selectivity TR-α/TR-β” value is 12.11.

As for `CC(=O)OCn1cc(Oc2c(Cl)cc(-n3nc(C#N)c(=O)[nH]c3=O)cc2Cl)cc(C(C)C)c1=O` [Compound I24, (5-(2,6-dichloro-4-(6-cyano-3,5-dioxo-4,5-dihydro-1,2,4-triazin-2 (3H)-yl)phenoxy)-3-isopropyl-2-oxopyridin-1 (2H)-yl)methyl acetate], on TRα LBD, the EC50 is above 100 µM. On TRβ LBD, a half-maximal effect (EC50) was put at 0.273 µM and the “Relative Selectivity TR-α/TR-β” value turned out to be 366.

With `CC(C)c1nc(Oc2c(Cl)cc(-n3nc(C#N)c(=O)[nH]c3=O)cc2Cl)c[nH]c1=O` [Compound I27, 2-(3,5-dichloro-4-((6-isopropyl-5-oxo-4,5-dihydropyrazin-2-yl)oxy)phenyl)-3,5-dioxo-2,3,4,5-tetrahydro-1,2,4-triazine-6-carbonitrile], the EC50 on TRα LBD worked out at 6.41 µM. On TRβ LBD, a half-maximal response (EC50) required 2.26 µM and the “Relative Selectivity TR-α/TR-β” value was 2.83.

`CC(C)n1cc(Oc2c(Cl)cc(-n3nc(C#N)c(=O)[nH]c3=O)cc2Cl)c(=O)[nH]c1=O` [Compound I28, 2-(3,5-dichloro-4-((1-isopropyl-2,4-dioxo-1,2,3,4-tetrahydropyrimidin-5-yl)oxy)phenyl)-3,5-dioxo-2,3,4,5-tetrahydro-1,2,4-triazine-6-carbonitrile]: the EC50 on TRα LBD was above 100 µM; at TRβ LBD, above 10 µM.

For `CC(C)c1cncn(Cc2c(Cl)cc(-n3nc(C#N)c(=O)[nH]c3=O)cc2Cl)c1=O` [Compound I29, 2-(3,5-dichloro-4-((5-isopropyl-6-oxopyrimidin-1 (6H)-yl)methyl)phenyl)-3,5-dioxo-2,3,4,5-tetrahydro-1,2,4-triazine-6-carbonitrile], the EC50 came to 5.23 µM at TRα LBD and 6.4 µM on TRβ LBD. In addition, the “Relative Selectivity TR-α/TR-β” value at TRβ LBD is given as 0.82.
